Assay results reported in patent US12409173B2, “Repurposing FDA-approved drugs as a novel cancer therapeutic avenue through inhibition of PRMT5” (priority 2019, dated 2025).

Key:
[1] = test system: PRMT5-mediated R30 dimethylation of p65 (NF-κB); assay: Western blot for symmetric dimethylation of p65 at R30; type: cell-based; conditions: PANC1, HT29 and MDA-MB-231 cells; treated at MTT IC50 values; vs untreated
Description: Primary antibodies for symmetric dimethylation at arginine (R) 30 subunit of p65 (detected by generating a customized polyclonal primary antibody in collaboration with GenScript Inc, Piscataway, NJ) and […] (Sigma-Aldrich) with their corresponding secondary antibodies were used.
PDAC, CRC and BC cells were pelleted post treatment with either Clo or Can in phosphate buffered saline (PBS). Pellets were lysed by overnight incubation at −80° C. as well as addition of lysis buffer [(10 mM Tris-Cl pH 8.0, 1 mM EDTA, 1% Triton X, 0.1% sodium deoxycholate, 0.1% SDS (sodium dodecyl sulfate), 14 mM NaCl, 1 mM phenylmethylsulfonyl fluoride]. Protein concentration for each sample was determined using Protein Assay Reagent (Biorad, Hercules, CA). Equal protein concentrations were run on a 10% SDS-PAGE (polyacrylamide gel electrophoresis) gel and transferred using polyvinylidene fluoride membrane (Thermo Fisher Scientific). Membranes were exposed to respective primary and secondary antibodies at dilutions and times based on manufacturer's instructions. Protein signal was detected using enhanced chemiluminescence (ECL) reagent (PerkinElmer).

[2] = test system: IL8 and TNFα mRNA expression; assay: qRT-PCR of NF-κB target genes IL8 and TNFα; type: cell-based; conditions: PANC1, HT29 and MDA-MB-231 cells; 48 hours; vs untreated
Description: Following treatment with either Clo or Can for 48 hours, total RNA was isolated from the respective cell lines using Trizol as described earlier. First strand complementary DNA was generated using SuperScript III First-Strand Synthesis Kit (Invitrogen, Carlsbad, CA). Following this, qPCR was executed using FastStart Universal SYBR Green kit (Roche, Indianapolis, IN).

[3] = set-up: species or system mice; conditions: mouse, in vivo, po, 100 mg/kg
Description: (§1) Male and female NSG mice were obtained from the In Vivo Therapeutics Core at Indiana University School of Medicine. After acclimation for 7 days, NSG mice (5-6 weeks old) were xenografted with Mycoplasma-free PANC1, MCF7 or HT29 cells subcutaneously (1×10^7 PANC1, 3×10^6 MCF7 or 3×10^6 HT29 cells used per mouse in 0.2 ml of a 1:1 mix of serum free DMEM media, or serum free RPMI media and Matrigel). Male mice were xenografted with PANC1 and HT29 cells. Female mice were xenografted with MCF7 cells. 5 mice were randomized in each group when tumor volumes reached ˜50 mm^3. Mice were treated with either vehicle control (10% DMSO, 20% PEG400, 5% Tween 80 and 65% sterile water), 100 mg/kg or 200 mg/kg candesartan cilexetil dissolved in the vehicle, or 100 mg/kg or 200 mg/kg cloperastine dissolved in the vehicle through oral gavage daily. Tumor volumes were measured 4 times per week and body weights were measured twice a week. The study was performed in accordance with the guidelines and standards of the Institutional Animal Care and Use Committee (IACUC)

[4] = target: T1, PRMT5 (Homo sapiens, UniProt O14744); assay: AlphaLISA PRMT5 methyltransferase assay (biotin-H4R3 substrate, SAM); type: biochemical; conditions: PRMT5 methyltransferase activity, FIG. 3C; read-out: IC50 binding affinities by AlphaLISA assay
T1 construct: Flag; made in house; host or cells: 293 cells
T1 sequence (O14744 whole entry): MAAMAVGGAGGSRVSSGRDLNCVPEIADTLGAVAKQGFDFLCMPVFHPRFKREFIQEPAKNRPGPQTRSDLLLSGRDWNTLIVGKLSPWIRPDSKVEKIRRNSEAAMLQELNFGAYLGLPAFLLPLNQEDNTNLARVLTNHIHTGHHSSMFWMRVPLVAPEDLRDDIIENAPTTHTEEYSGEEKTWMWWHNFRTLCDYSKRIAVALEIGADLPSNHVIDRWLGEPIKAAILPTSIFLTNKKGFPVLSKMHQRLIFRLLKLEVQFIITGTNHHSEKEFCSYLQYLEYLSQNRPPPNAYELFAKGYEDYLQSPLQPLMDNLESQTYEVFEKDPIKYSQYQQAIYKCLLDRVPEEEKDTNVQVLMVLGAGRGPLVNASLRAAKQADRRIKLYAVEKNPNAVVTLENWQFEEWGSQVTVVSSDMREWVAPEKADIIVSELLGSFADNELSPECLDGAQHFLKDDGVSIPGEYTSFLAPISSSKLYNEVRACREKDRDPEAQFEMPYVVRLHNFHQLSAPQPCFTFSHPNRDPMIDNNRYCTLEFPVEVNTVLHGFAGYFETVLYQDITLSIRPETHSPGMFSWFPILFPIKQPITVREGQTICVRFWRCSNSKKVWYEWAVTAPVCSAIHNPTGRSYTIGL
T1 sequence (Q9BQA1 whole entry partner): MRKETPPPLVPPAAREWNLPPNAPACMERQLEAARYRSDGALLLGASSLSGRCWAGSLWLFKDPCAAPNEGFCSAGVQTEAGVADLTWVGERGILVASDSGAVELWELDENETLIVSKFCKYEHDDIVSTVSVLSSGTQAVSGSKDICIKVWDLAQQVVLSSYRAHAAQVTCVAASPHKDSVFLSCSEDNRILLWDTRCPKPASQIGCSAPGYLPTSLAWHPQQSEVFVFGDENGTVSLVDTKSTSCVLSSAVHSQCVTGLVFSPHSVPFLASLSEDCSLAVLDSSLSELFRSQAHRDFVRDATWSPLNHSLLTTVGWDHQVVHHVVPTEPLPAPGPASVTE
Text: For AlphaLISA HTS: the substrate, histone H4 peptide unmethylated at arginine (R) 3 (unmeH4R3) was purchased from AnaSpec (Fremont, CA). The 23-amino acid H4R3 peptide was biotinylated at its N′ terminus: […]-K(biotin)-NH2 (SEQ ID NO: 1). S-adenosyl methionine (SAM) was used as a methyl group donor (New England Biolabs, Ipswich, MA). Compound libraries comprising of FDA-approved drugs, synthetic and semi-synthetic natural products as well as bioactives were collectively purchased from Analyticon Discovery (Rockville, MD), MilliporeSigma (Burlington, MA) and Microsource Discovery Systems Inc (Gaylordsville, CT). Acceptor beads specific for dimethylated H4R3, Donor beads with a streptavidin tag, assay buffer, OptiPlate™ 384-well white bottom plates, TopSeal™-A film to seal the plates and EnVision® Multilabel Reader were sourced from PerkinElmer (Waltham, MA). […]
A detailed description of optimization of the AlphaLISA HTS screening protocol has already been published previously. […] Alpha signal was then quantified using the EnVision® reader.
To design a drug screen to check for compounds that had the potential to inhibit PRMT5 methyltransferase activity, the AlphaLISA assay was utilized. […] This emitted AlphaLISA signal is directly proportional to the methyltransferase activity of PRMT5, thus allowing for quantification of its enzymatic activity.

[5] = test system: CRC cell lines (HT29, HCT116 and DLD1); assay: MTT cell viability assay, CRC cells; type: cell-based; conditions: 4 days
Description: (§2) Cells were grown to 60% density in clear flat-bottom 96-well plates (Corning Inc, Corning, NY) for 24 hours and treated with a range of concentrations of either Clo or Can respectively, followed by incubation for 4 days. 10 μl of MTT dye (Sigma-Aldrich) was added to each well and incubated for 2 hours at 37° C. The media:MTT mixture was then removed and 10 μl DMSO was added per well. Absorbance was measured using Synergy H4 Multi-Mode Reader (BioTek Instruments, Winooski, VT).

[6] = test system: PANC1, HT29 and MDA-MB231 cells; assay: Three-dimensional (3D) colony formation assay; type: cell-based; conditions: increasing concentrations, 72 hours of drug treatment
Description: PANC1 and MDA-MB-231 (1000 cells) as well as HT29 (250 cells) were seeded per well within ultra-low attachment plates (Corning Inc) in media comprising 3% Reduced Growth Factor-Matrigel (BD Biosciences, Franklin Lakes, NJ). Clo and Can were added in a concentration range from 5-100 μM and 5-120 μM respectively after seeding for 48 hours. After 72 hours of drug treatment, the cells were stained using 10% Alamar blue dye (Fisher) and fluorescence was quantified using a Synergy H4 Reader.

[7] = test system: BC cells (MD-MB-231 and BT20); assay: MTT cell viability assay, BC cells; type: cell-based; conditions: 4 days
Description: as §2

[8] = test system: NF-κB activation; assay: NF-κB luciferase assay; type: cell-based; conditions: increasing concentrations; PANC1, HT29 and MDA-MB-231 cells; 48 hours
Description: The NF-κB luciferase lentiviral construct pLA-NFκBmCMV-luc-H4-puro (containing five tandem copies of the NF-κB site from the IP10 gene) was introduced in the respective cell lines using Lipofectamine™ LTX Reagent and PLUS Reagents (Thermo Fisher Scientific). Luciferase activity was measured after 48 hours (with or without drug treatment) using Reporter Lysis Buffer kit (Promega, Madison, WI) as per manufacturer's instructions and the Synergy H4 Reader.

[9] = test system: PANC1, HT29 and MCF7 xenografts; assay: Xenograft tumor growth in NSG mice (PANC1, HT29, MCF7); type: in vivo; conditions: PANC1, HT29 or MCF7 xenografts, 100 mg/kg oral gavage daily
Description: as §1

[10] = test system: PDAC cells (PANC1, MiaPaCa2 and AsPC1); assay: MTT cell viability assay, PDAC cells; type: cell-based; conditions: 4 days
Description: as §2

Row | SMILES | dimethylation levels at R30 of p65 [1] | mRNA expression of IL8 and TNFα [2] | body weights over the course of treatment [3] | IC50 [4] | IC50 [5] | extent of 3D colony formation [6] | IC50 [7] | activation of NF-κB (luciferase) [8] | tumor sizes over time relative to control mice [9] | IC50 [10]
1 | Cl.Clc1ccc(C(OCCN2CCCCC2)c2ccccc2)cc1 (centres unmarked) [Clo, Cloperastine hydrochloride] | reduction in the dimethylation levels at R30 | significant decrease | body weights remained similar | 27 µM | 18 to 34 µM | marked decrease | 26 to 29 µM | concurrent decrease | significantly reduced tumor sizes | ~30 µM
2 | CCOc1nc2cccc(C(=O)OC(C)OC(=O)OC3CCCCC3)c2n1Cc1ccc(-c2ccccc2-c2nn[nH]n2)cc1 (centres unmarked) [Can, Candesartan cilexetil] | reduction in the dimethylation levels at R30 | significant decrease | body weights remained similar | 33 µM | 15 to 17 µM | marked decrease | 18 to 20 µM | concurrent decrease | remarkably reduced tumor sizes | ~20 µM
